According to US20070092546A1, “Thiamin based insect repellant” (Violet Fire, LLC, priority 2005, published 2007):
Structures can show the parent of a compound that is named as a salt. Where two headings read alike, the source gives them in different places.

What was measured:
insects = details: stated without test data
Description: Thiamin hydrochloride is soluble in water and glycerin and other polyhydric alcohols.

[1] = cited from earlier work
[2] = test system: mosquitoes and other biting insects; details: ingested doses of up to 100 mg/day for several weeks; cited from earlier work
[3] = 100 mg/day consumed over a number of days; cited from earlier work

What does the source list for `Cc1ncc(C[n+]2csc(CCO)c2C)c(N)n1` [Thiamin hydrochloride]?
insect repellant properties (insects): have insect repellant properties; solubility ([1]; in organic solvents): not readily soluble; solubility ([1]; in water and glycerin and other polyhydric alcohols): soluble

For `Cc1ncc(C[n+]2csc(CCO)c2C)c(N)n1` [thiamin, Thiamin], which “insect repellency on the human skin” value [2] is on record?
The value was “will repel mosquitoes and other biting insects from the skin”.

And the “adverse effects of ingestion” value [3]?
Its value is “can cause anaphylactic stock, allergic reactions and skin rashes”.

Which insect repellant properties (insects) does the source give for Thiamin mononitrate here?
The insect repellant properties was “have insect repellant properties”.
